In patent US8754242B2, “Herbicides” (Syngenta Crop Protection LLC, priority 2007, dated 2014):

Tests used:
Type in all cases: in vivo
[1] = test system: Digitaria sanguinalis (DIGSA); test: Test Example 1 post-emergence herbicidal activity; conditions: 360 h, rate 125 g/ha, evaluated 15 days later, read-out: Post-emergence activity DIGSA (100=total damage to plant; 0=no damage to plant)
Method in brief: (§1)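 Pots sown in standard soil were sprayed 1 day (pre-emergence) or 10 days (post-emergence) after sowing with an aqueous spray from an acetone/Emulsogen EL/N-methylpyrrolidone-based formulation. Visual damage was scored 20 days (pre) or 15 days (post) later in the greenhouse, 0 = none to 100 = total.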

[2] = test system: Alopecurus myosuroides (ALOMY); test: Test Example 1 post-emergence herbicidal activity; conditions: 360 h, rate 125 g/ha, evaluated 15 days later, read-out: Post-emergence activity ALOMY (100=total damage to plant; 0=no damage to plant)
Method in brief: as §1

[3] = test system: Echinochloa crus-galli (ECHCG); test: Test Example 1 post-emergence herbicidal activity; conditions: 360 h, rate 125 g/ha, evaluated 15 days later, read-out: Post-emergence activity ECHCG (100=total damage to plant; 0=no damage to plant)
Method in brief: as §1

Lolium perenne (LOLPE) [4] = test: Test Example 1 post-emergence herbicidal activity; conditions: 360 h, rate 125 g/ha, evaluated 15 days later, read-out: Post-emergence activity LOLPE (100=total damage to plant; 0=no damage to plant)
Method in brief: as §1

Setaria faberi (SETFA) [5] = test: Test Example 1 post-emergence herbicidal activity; conditions: 360 h, rate 125 g/ha, evaluated 15 days later, read-out: Post-emergence activity SETFA (100=total damage to plant; 0=no damage to plant)
Method in brief: as §1

Avena fatua (AVEFA) [6] = test: Test Example 1 post-emergence herbicidal activity; conditions: 360 h, rate 125 g/ha, evaluated 15 days later, read-out: Post-emergence activity AVEFA (100=total damage to plant; 0=no damage to plant)
Method in brief: as §1

[7] = test system: Digitaria sanguinalis (DIGSA); test: Test Example 1 pre-emergence herbicidal activity; conditions: Digitaria sanguinalis, 480 h, rate 250 g/ha, evaluated 20 days later, read-out: Pre-emergence activity DIGSA (100=total damage to plant; 0=no damage to plant)
Method in brief: as §1

[8] = test system: Alopecurus myosuroides (ALOMY); test: Test Example 1 pre-emergence herbicidal activity; conditions: Alopecurus myosuroides, 480 h, rate 250 g/ha, evaluated 20 days later, read-out: Pre-emergence activity ALOMY (100=total damage to plant; 0=no damage to plant)
Method in brief: as §1

[9] = test system: Echinochloa crus-galli (ECHCG); test: Test Example 1 pre-emergence herbicidal activity; conditions: Echinochloa crus-galli, 480 h, rate 250 g/ha, evaluated 20 days later, read-out: Pre-emergence activity ECHCG (100=total damage to plant; 0=no damage to plant)
Method in brief: as §1

Lolium perenne (LOLPE) [10] = test: Test Example 1 pre-emergence herbicidal activity; conditions: Lolium perenne, 480 h, rate 250 g/ha, evaluated 20 days later, read-out: Pre-emergence activity LOLPE (100=total damage to plant; 0=no damage to plant)
Method in brief: as §1

Setaria faberi (SETFA) [11] = test: Test Example 1 pre-emergence herbicidal activity; conditions: Setaria faberi, 480 h, rate 250 g/ha, evaluated 20 days later, read-out: Pre-emergence activity SETFA (100=total damage to plant; 0=no damage to plant)
Method in brief: as §1

Avena fatua (AVEFA) [12] = test: Test Example 1 pre-emergence herbicidal activity; conditions: Avena fatua, 480 h, rate 250 g/ha, evaluated 20 days later, read-out: Pre-emergence activity AVEFA (100=total damage to plant; 0=no damage to plant)
Method in brief: as §1

SMILES	pest or weed control at 125 g/ha [1] [%]	pest or weed control at 125 g/ha [2] [%]	pest or weed control at 125 g/ha [3] [%]	pest or weed control at 125 g/ha (Lolium perenne (LOLPE) [4]) [%]	pest or weed control at 125 g/ha (Setaria faberi (SETFA) [5]) [%]	pest or weed control at 125 g/ha (Avena fatua (AVEFA) [6]) [%]	pest or weed control at 250 g/ha [7] [%]	pest or weed control at 250 g/ha [8] [%]	pest or weed control at 250 g/ha [9] [%]	pest or weed control at 250 g/ha (Lolium perenne (LOLPE) [10]) [%]	pest or weed control at 250 g/ha (Setaria faberi (SETFA) [11]) [%]	pest or weed control at 250 g/ha (Avena fatua (AVEFA) [12]) [%]
Cc1ccc([C@@H]2C[C@@H]3O[C@H]2[C@H]2C(O)=C(c4c(C)cc(C)cc4C)C(=O)[C@H]23)cc1 (racemic) [Example T71]	70	50	60	20	50	10	50	30	50	0	20	0
C=C[C@@H]1C[C@@H]2O[C@H]1[C@H]1C(O)=C(c3c(C)cc(C)cc3C)C(=O)[C@H]12 (racemic) [Example T99]	60	80	100	10	70	30	80	80	100	100	80	60
Cc1cc(C)c(C2=C(O)[C@@H]3[C@@H]4O[C@@H](C[C@H]4c4ccc(C(F)(F)F)nc4)[C@@H]3C2=O)c(C)c1 (racemic) [Example T128]	100	80	100	80	100	90	100	70	100	90	100	70
CCc1cc(C)cc(CC)c1C1=C(O)[C@@H]2[C@@H]3O[C@@H](C[C@H]3c3ccc(OC(F)(F)F)cc3)[C@@H]2C1=O (racemic) [Example T159]	100	90	100	40	100	70	70	50	70	40	70	60
CCc1cc(C)cc(CC)c1C1=C(O)[C@@H]2[C@@H]3O[C@@H](C[C@H]3c3ccc(Cl)cc3C)[C@@H]2C1=O (racemic) [Example T165]	70	80	100	80	90	30	50	70	80	80	70	20
CCc1cc(C)cc(CC)c1C1=C(O)[C@@H]2[C@@H]3O[C@@H](C[C@H]3c3ccccc3F)[C@@H]2C1=O (racemic) [Example T170]	40	80	100	80	40	70	70	80	80	90	70	40
CCc1cc(C)cc(CC)c1C1=C(O)[C@@H]2[C@@H]3O[C@@H](C[C@H]3c3cccc(C(C)=O)c3)[C@@H]2C1=O (racemic) [Example T174]	70	70	80	40	50	70	40	30	0	30	0	30
CCc1cc(C)cc(CC)c1C1=C(O)[C@@H]2[C@@H]3O[C@@H](C[C@H]3c3ccc(F)c(F)c3)[C@@H]2C1=O (racemic) [Example T178]	100	100	100	90	100	90	80	70	100	80	100	40
CCc1cc(C)cc(CC)c1C1=C(O)[C@@H]2[C@@H]3O[C@@H](C[C@H]3c3ccc(C)cc3)[C@@H]2C1=O (racemic) [Example T180]	90	90	100	70	100	70	80	30	60	70	40	20
CCc1cc(C)cc(CC)c1C1=C(O)[C@@H]2[C@@H]3O[C@@H](C[C@H]3c3cc(OC)c(OC)c(OC)c3)[C@@H]2C1=O (racemic) [Example T181]	80	90	100	80	100	90	90	40	100	80	70	40
CCc1cc(C)cc(CC)c1C1=C(O)[C@@H]2[C@@H]3O[C@@H](C[C@H]3c3cc([N+](=O)[O-])ccc3C)[C@@H]2C1=O (racemic) [Example T184]	20	10	100	10	50	0	70	30	60	70	90	60
Cc1cc(C)c(C2=C(O)[C@@H]3[C@@H]4O[C@@H](C[C@H]4c4cc(C(F)(F)F)nc(C(F)(F)F)c4)[C@@H]3C2=O)c(C)c1 (racemic) [Example T199]	100	100	100	60	80	100	100	0	80	60	60	50
Cc1cc(C)c(C2=C(O)[C@@H]3[C@@H]4O[C@@H](C[C@H]4c4ccc(C(F)(F)F)cn4)[C@@H]3C2=O)c(C)c1 (racemic) [Example T200]	100	70	100	80	100	80	70	0	90	70	70	0
